According to patent publication US20240368065A1 (HELMHOLTZ-ZENTRUM FÜR INFEKTIONSFORSCHUNG GMBH, priority 2021, published 2024):

Experiments:
purified hACOD1 = target: T1, purified hACOD1 (Homo sapiens, UniProt A6NK06); test: hACOD1 enzyme activity in vitro assay, competitive inhibition; format: biochemical; conditions: purified hACOD1, substrate cis-aconitate, competitive inhibition fit, pH 6.5, 37° C.; read-out: Inhibition constant (Ki)
T1 construct: made in house
T1 sequence (A6NK06 1-481): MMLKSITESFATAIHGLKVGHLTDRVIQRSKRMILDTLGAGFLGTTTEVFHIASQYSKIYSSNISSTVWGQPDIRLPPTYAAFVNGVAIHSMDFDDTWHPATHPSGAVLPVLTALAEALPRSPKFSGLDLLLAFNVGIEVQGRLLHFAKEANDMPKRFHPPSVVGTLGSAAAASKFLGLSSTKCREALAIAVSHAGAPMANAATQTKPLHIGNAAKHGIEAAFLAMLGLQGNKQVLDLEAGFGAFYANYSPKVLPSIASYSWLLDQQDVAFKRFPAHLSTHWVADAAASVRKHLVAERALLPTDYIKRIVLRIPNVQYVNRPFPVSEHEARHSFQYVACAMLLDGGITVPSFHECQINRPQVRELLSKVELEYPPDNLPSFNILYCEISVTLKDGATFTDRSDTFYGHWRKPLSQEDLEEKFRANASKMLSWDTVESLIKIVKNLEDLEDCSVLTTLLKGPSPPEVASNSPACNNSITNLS
Method: The activity of purified hACOD1 was measured in the presence of increasing concentrations of substrate and the five inhibitors. The data were globally fitted to the Michaelis-Menten equation for competitive inhibition.
The activity of purified hACOD1 was measured in the presence of increasing concentrations of substrate and the five inhibitors. The data was globally fitted to the Michaelis-Menten equation for competitive inhibition.
The compounds were dissolved in water, neutralized with NaOH and stored at −20° C. For the assay, 125 μL 0.2 M sodium phosphate buffer, pH 6.5, was mixed on ice with 5 μL enzyme, 10 μl inhibitor (or 10 μl water) and 10 μL substrate (cis-aconitic acid). The following combinations of enzyme amount and substrate concentration were used for CA: 2 μg enzyme and 0.1 mM substrate, 2 μg and 0.3 mM, 3 […] and 1 mM, 5 μg and 3.0/10.0 mM. For the other inhibitors, 2 μg enzyme and 0.1/0.2/0.5 mM substrate, 3 μg and 1.0/2.0 mM, 5 μg and 5.0/10.0 mM. Incubation for 10 min at 37° C. was immediately followed by heat inactivation at 95° C. for 3 min. Protein precipitate was pelleted by centrifugation for 1 h. Supernatants were acidified with 100 μL 100 mM H3PO4.

[1] = test system: Nrf2 signaling (AKR1B10 mRNA); test: Induction of Nrf2 signaling: AKR1B10 mRNA in HaCaT cells (RT-qPCR); format: cell-based, human; conditions: 12 hours treatment
Method: Induction was greatest by CA, intermediate by IA and lowest by MA.
The immortalized human keratinocyte cell line HaCaT was grown in RPMI 1640 medium (GIBCO Life Technologies, Karlsruhe, Germany) supplemented with 30% FCS, 100 μg/mL pen/strep, 500 μg/mL gentamycin and 1% each Glutamax and nonessential amino acid solution (NEAA; GIBCO Life Technologies, Karlsruhe, Germany). Cells were treated with the indicated concentrations of itaconate, mesaconate and citraconate for 12 hours. Cells were then washed in buffer, pelleted, and RNA was extracted for subsequent analysis of expression of AKR1B10, which is specifically activated by Nrf2 signaling in this cell line. AKR1B10 mRNA expression was determined by RT-qPCR.
Induction was greatest by CA compared to both IA and MA.

[2] = target: succinate dehydrogenase (SDH) (Homo sapiens, UniProt P31040); test: Preliminary data on binding to succinate dehydrogenase
Sequence of succinate dehydrogenase (SDH) (P31040 43-664): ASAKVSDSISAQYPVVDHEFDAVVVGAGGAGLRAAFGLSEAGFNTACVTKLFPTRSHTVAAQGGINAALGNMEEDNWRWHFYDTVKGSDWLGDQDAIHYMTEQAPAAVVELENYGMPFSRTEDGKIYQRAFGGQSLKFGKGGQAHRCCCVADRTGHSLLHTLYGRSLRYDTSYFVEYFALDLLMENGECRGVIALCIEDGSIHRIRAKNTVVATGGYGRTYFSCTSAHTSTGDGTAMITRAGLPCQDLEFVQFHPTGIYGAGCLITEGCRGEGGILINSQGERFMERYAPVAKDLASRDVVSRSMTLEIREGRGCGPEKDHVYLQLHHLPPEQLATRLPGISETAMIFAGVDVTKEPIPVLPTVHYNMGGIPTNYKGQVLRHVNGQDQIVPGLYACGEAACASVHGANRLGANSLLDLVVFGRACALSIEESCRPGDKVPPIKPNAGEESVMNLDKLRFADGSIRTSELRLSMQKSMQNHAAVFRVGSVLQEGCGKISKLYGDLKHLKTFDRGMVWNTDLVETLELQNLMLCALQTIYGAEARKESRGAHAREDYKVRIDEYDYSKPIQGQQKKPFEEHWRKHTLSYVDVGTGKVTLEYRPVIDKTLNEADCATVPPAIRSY
Sequence of succinate dehydrogenase (SDH) (P21912 29-280 partner): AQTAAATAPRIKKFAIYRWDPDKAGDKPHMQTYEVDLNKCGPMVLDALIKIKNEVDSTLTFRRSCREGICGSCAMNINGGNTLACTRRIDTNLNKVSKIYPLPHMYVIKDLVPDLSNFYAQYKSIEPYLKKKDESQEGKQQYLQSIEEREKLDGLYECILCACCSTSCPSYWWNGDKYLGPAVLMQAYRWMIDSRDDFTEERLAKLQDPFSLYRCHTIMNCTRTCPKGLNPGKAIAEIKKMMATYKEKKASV
Sequence of succinate dehydrogenase (SDH) (Q99643 30-169 partner): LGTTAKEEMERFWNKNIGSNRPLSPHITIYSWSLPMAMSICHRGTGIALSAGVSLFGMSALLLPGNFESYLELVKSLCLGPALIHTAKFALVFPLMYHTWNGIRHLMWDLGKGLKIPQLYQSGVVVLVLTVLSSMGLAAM
Sequence of succinate dehydrogenase (SDH) (O14521 57-159 partner): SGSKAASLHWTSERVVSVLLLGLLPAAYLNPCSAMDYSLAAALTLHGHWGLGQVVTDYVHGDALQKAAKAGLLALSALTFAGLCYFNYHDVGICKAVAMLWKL

[3] = test system: influenza A virus (H1N1/34/PR/8M); format: cell-based
phosphorylated STAT1 = test: STAT1 phosphorylation immunoblot in influenza A virus-infected A549 and dTHP1 cells; format: cell-based, human; conditions: A549 and dTHP1 cells infected with influenza A virus; anti-P-STAT1 immunoblot
Method: A549 and dTHP1 cells were infected with influenza A virus and treated with CA, IA or MA.
2×10^5 dTHP1 cells were infected with influenza A virus (H1N1) strain PR8M at a multiplicity of infection of 1. 12 h after infection, cells were washed in buffer, pelleted, and protein extracts resolved by gel electrophoresis and transferred to a nylon membrane. Bands corresponding to phosphorylated Stat1 protein were visualized by enhanced chemiluminescense using specific anti-P-STAT1 primary antibody and […] as secondary antibody.
As can be observed from FIG. 3, A549 and dTHP1 cells were infected with influenza A virus and treated with CA, IA or MA. […] STAT1 phosphorylation is known to be associated with inflammation, and thus CA represents an effective substance in reducing inflammation.

[4] = test system: reactive oxygen species (ROS) in dTHP1 cells; test: Mitochondrial ROS in influenza A virus-infected dTHP1 cells (MitoSox Red, flow cytometry); format: cell-based, human; conditions: dTHP1 infected with influenza A virus, 10 mM compound, 12 h after infection
Method: dTHP1 Cells were seeded at a density of 2×10^5 cells per well in a 12-well plate and infected with influenza A virus at an MOI of 1. Mitochondrial ROS were measured 12 h after infection. Cells were incubated for 5 min with medium containing 5 μM of MitoSox Red (mitochondrial superoxide indicator, Invitrogen) and were washed with PBS. Cells were then resuspended in cold PBS and mitochondrial ROS was measured via the phycoerythrin (PE) channel using a BD™ LSR-II flow cytometer.
As can be observed in FIG. 2, dTHP1 cells were infected with influenza A virus, incubated with 10 mM CA, IA, or MA, and reactive oxygen species (ROS) were measured by flow cytometry.

[5] = test system: CXCL10 mRNA (encoding IP-10); test: CXCL10 mRNA expression in influenza A virus-infected dTHP1 cells (RT-qPCR); format: cell-based, human; conditions: dTHP1 infected with influenza A virus PR8M, MOI 1, 12 h after infection; increasing concentrations; compared among CA, IA, MA
ACOD1 = target: T2, ACOD1 (Homo sapiens, UniProt A6NK06); test: Cellular ACOD1 inhibition: intracellular itaconate in PMA-differentiated THP1 stimulated with LPS/IFNγ (HPLC-MS/MS); format: cell-based; conditions: compared with citraconic acid
T2 construct: THP1 were differentiated with PMA and then stimulated with LPS/IFNγ for 24 hours; endogenous in cells; host or cells: THP1 (PMA-differentiated, LPS/IFNγ-stimulated)
T2 sequence (A6NK06 1-481): T1 sequence (A6NK06 1-481)
Method: FIG. 9: Ethyl homologue of the methyl group of citraconate enhances ACOD1 inhibition in a cellular assay. […] ACOD1 activity was assessed by measuring intracellular itaconate concentrations by HPLC-MS/MS as described in (Winterhoff,
Chen et al Metabolites 2021). IC50=inhibitory concentration 50%; CC50 =cytotoxic concentration 50%; SI=selectivity index=CC50/IC50.
Methylation of the […] of citraconate thus enhances ACOD1 inhibition in a cellular assay. […] ACOD1 activity was assessed by measuring intracellular itaconate concentrations by HPLC-MS/MS as described in Winterhoff, Chen et al (Metabolites 2021).

[6] = test system: mitochondrial ROS in NRF2−/− human vascular endothelial cells; test: Mitochondrial ROS in human vascular endothelial cells infected with human coronavirus 229E (flow cytometry); format: cell-based; conditions: NRF2−/− cells infected with human coronavirus 229E, 24 h after infection, co-incubation
Method: FIG. 10: (Z)-2-Ethylbut-2-enedioic acid maintains anti-oxidative properties. Wild-type or NRF2−/−human vascular endothelial cells were infected with human coronavirus 229E (a low pathogenic, seasonal strain), and mitochondrial ROS levels were measured by flow cytometry 24 h after infection.
Maintenance of anti-ROS activity of (Z)-2-ethylbut-2-enedioic acid (“ethylcitraconic acid”; Formula VIII) is shown in a model of infection of cells by a human coronavirus 229E, a low pathogenic CoV strain. Despite the methylation of CA evident in Formel VIII (a methylation that could theoretically lead to loss of electrophilicity), the compound (Z)-2-Ethylbut-2-enedioic acid maintains anti-oxidative properties. Wild-type or NRF2−/−human vascular endothelial cells were infected with human coronavirus 229E (a low pathogenic, seasonal strain), and mitochondrial ROS levels were measured by flow cytometry 24 h after infection.

SMILES | Ki (purified hACOD1) [µM] | Induction of AKR1B10 mRNA (Nrf2 signaling) [1] | STAT1 phosphorylation (phosphorylated STAT1) | also measured
O=C(O)/C=C(\C(=O)O)c1ccccc1 [2-phenylmaleic acid, 2-Phenylmaleic acid] | 60 ± 30 |  |  | 
C/C(=C/C(=O)O)C(=O)O [citraconic acid] |  | greatest | reduced STAT1 phosphorylation | Direct binding to SDH [2]: does not directly bind SDH; Viral RNA (hemagglutinin [HA] mRNA) [3]: not influenced; Viral titres in culture supernatants [3]: significantly reduced; Reduction of reactive oxygen species (ROS) [4]: significant reduction; Reduction of CXCL10 mRNA [5]: greatest
O=C(O)C1=C(C(=O)O)CCC1 [cyclopent-1-ene-1,2-dicarboxylic acid, Cyclopent-1-ene-1,2-dicarboxylic acid] | 39 ± 2 |  |  | 
C/C(=C\C(=O)O)C(=O)O [mesaconic acid] |  | lowest | reduced STAT1 phosphorylation | 
C=C(CC(=O)O)C(=O)O [itaconic acid] |  | intermediate | reduced STAT1 phosphorylation | Reduction of reactive oxygen species (ROS) [4]: significant reduction
CC/C(=C/C(=O)O)C(=O)O [(Z)-2-ethylbut-2-enedioic acid] | 0.235 ± 0.021 |  |  | Cytotoxicity (ACOD1): remains the same; Selectivity index (CC50/IC50) (ACOD1): increases; ACOD1 inhibition in cellular model (ACOD1; dTHP1, LPS/IFNγ 24 hours, intracellular itaconate): increased ACOD1 inhibition; Mitochondrial ROS levels [6]: reduced to levels seen in uninfected WT cells
CC1CCC(C(=O)O)=C1C(=O)O (centres unmarked) [3-Methyl-cyclopent-1-ene-1,2-dicarboxylic acid] | 0.335 |  |  | 
